Experimental data published in ChEMBL document CHEMBL1144218, “Synthesis and biological activity of anticoccidial agents: 5,6-diarylimidazo[2,1-b][1,3]thiazoles” (Bioorg Med Chem Lett, 2008).

Experiments:
Eimeria mitis [1] = assay: Anticoccidial activity against Eimeria mitis infected in poultry bird assessed as reduction of […] burden at 50 ppm, po after 7 days; type: functional; set-up: scale not given: the % may be the effect or the level left
Eimeria acervulina [2] = assay: Anticoccidial activity against Eimeria acervulina infected in poultry bird assessed as reduction of […] burden at 50 ppm, po after 7 days; type: functional; set-up: scale not given: the % may be the effect or the level left
Eimeria maxima [3] = assay: Anticoccidial activity against Eimeria maxima infected in poultry bird assessed as reduction of […] burden at 50 ppm, po after 7 days; type: functional; set-up: scale not given: the % may be the effect or the level left
[4] = Inhibition of Eimeria tenella PKG
Eimeria tenella [5] = assay: Anticoccidial activity against Eimeria tenella infected in poultry bird assessed as reduction of […] burden at 50 ppm, po after 7 days; type: functional; set-up: scale not given: the % may be the effect or the level left
Eimeria maxima [6] = assay: Anticoccidial activity against Eimeria maxima infected in poultry bird assessed as reduction of […] burden at 25 ppm, po after 7 days; type: functional; set-up: scale not given: the % may be the effect or the level left
Eimeria acervulina [7] = assay: Anticoccidial activity against Eimeria acervulina infected in poultry bird assessed as reduction of […] burden at 25 ppm, po after 7 days; type: functional; set-up: scale not given: the % may be the effect or the level left
Eimeria tenella [8] = assay: Anticoccidial activity against Eimeria tenella infected in poultry bird assessed as reduction of […] burden at 12.5 ppm, po after 7 days; type: functional; set-up: scale not given: the % may be the effect or the level left
Eimeria maxima [9] = assay: Anticoccidial activity against Eimeria maxima infected in poultry bird assessed as reduction of […] burden at 12.5 ppm, po after 7 days; type: functional; set-up: scale not given: the % may be the effect or the level left
Eimeria acervulina [10] = assay: Anticoccidial activity against Eimeria acervulina infected in poultry bird assessed as reduction of […] burden at 6.25 ppm, po after 7 days; type: functional; set-up: scale not given: the % may be the effect or the level left
Eimeria tenella [11] = assay: Anticoccidial activity against Eimeria tenella infected in poultry bird assessed as reduction of […] burden at 6.25 ppm, po after 7 days; type: functional; set-up: scale not given: the % may be the effect or the level left
Eimeria mitis [12] = assay: Anticoccidial activity against Eimeria mitis infected in poultry bird assessed as reduction of […] burden at 25 ppm, po after 7 days; type: functional; set-up: scale not given: the % may be the effect or the level left
Eimeria tenella [13] = assay: Anticoccidial activity against Eimeria tenella infected in poultry bird assessed as reduction of […] burden at 25 ppm, po after 7 days; type: functional; set-up: scale not given: the % may be the effect or the level left
Eimeria mitis [14] = assay: Anticoccidial activity against Eimeria mitis infected in poultry bird assessed as reduction of […] burden at 6.25 ppm, po after 7 days; type: functional; set-up: scale not given: the % may be the effect or the level left
Eimeria maxima [15] = assay: Anticoccidial activity against Eimeria maxima infected in poultry bird assessed as reduction of […] burden at 6.25 ppm, po after 7 days; type: functional; set-up: scale not given: the % may be the effect or the level left
Eimeria acervulina [16] = assay: Anticoccidial activity against Eimeria acervulina infected in poultry bird assessed as reduction of […] burden at 12.5 ppm, po after 7 days; type: functional; set-up: scale not given: the % may be the effect or the level left
Eimeria mitis [17] = assay: Anticoccidial activity against Eimeria mitis infected in poultry bird assessed as reduction of […] burden at 12.5 ppm, po after 7 days; type: functional; set-up: scale not given: the % may be the effect or the level left

SMILES | Activity (Eimeria mitis [1]) [%] | Activity (Eimeria acervulina [2]) [%] | Activity (Eimeria maxima [3]) [%] | IC50 [4] [nM] | Activity (Eimeria tenella [5]) [%] | other results
CN(C)Cc1cn2c(-c3ccncc3)c(-c3ccc(F)cc3)nc2s1 | <50 | 50 | <50 | 22 | 80 | –
CN(C)CCc1cn2c(-c3ccncc3)c(-c3ccc(F)cc3)nc2s1 | 99 | 50 | <50 | 10.1 | 50 | –
CN1CCN(C(=O)c2cn3c(-c4ccncc4)c(-c4ccc(F)cc4)nc3s2)CC1 | – | – | – | 100 | – | –
Cc1c(CN2CCN(C)CC2)sc2nc(-c3ccc(F)cc3)c(-c3ccncc3)n12 | – | – | – | > 100 | – | –
CN(C)Cc1cn2c(-c3ccnc(N)n3)c(-c3ccc(F)cc3)nc2s1 | 50 | 100 | <50 | 0.9 | 99 | –
CN1CCN(CCc2cn3c(-c4ccncc4)c(-c4ccc(F)cc4)nc3s2)CC1 | <50 | 80 | 50 | 2.5 | 99 | –
CN1CCN(Cc2cn3c(-c4ccncn4)c(-c4ccc(F)cc4)nc3s2)CC1 | 100 | 99 | 100 | 1.04 | 100 | –
CN1CCN(Cc2cn3c(-c4ccnc(N)n4)c(-c4ccc(F)cc4)nc3s2)CC1 | 100 | 100 | 100 | 0.08 | 100 | Activity (Eimeria maxima [6]): 100%; Activity (Eimeria acervulina [7]): 100%; Activity (Eimeria tenella [8]): 100%; Activity (Eimeria maxima [9]): 100%; Activity (Eimeria acervulina [10]): 100%; Activity (Eimeria tenella [11]): 100%; Activity (Eimeria mitis [12]): 100%; Activity (Eimeria tenella [13]): 100%; Activity (Eimeria mitis [14]): <50%; Activity (Eimeria maxima [15]): 100%; Activity (Eimeria acervulina [16]): 100%; Activity (Eimeria mitis [17]): <50%
CN1CCN(Cc2cn3c(-c4ccncc4)c(-c4ccc(F)cc4)nc3s2)CC1 | 80 | 100 | <50 | 0.7 | 99 | –
